Laboratory results taken from US20060089390A1, “3-benzoyl-2,4,5-substituted pyridine derivatives or salts thereof and bactericides containing the same” (Ishihara Sangyo Kaisha, Ltd., priority 2002, published 2006).
Read-outs that look alike come from different tables or passages of the source.

Experiments:
wheat powdery mildew = assay: Test on preventive effect against wheat powdery mildew; assay type: in vivo, Wheat (cultivar: Norin-61-go); conditions: Triticum aestivum, foliar spray before inoculation, examined 6 to 8 days after inoculation, read-out: controlling effects as compared with non-treated cases (area of sporogony)
Procedure: Tests on Preventive Effect Against Wheat Powdery Mildew Wheat (cultivar: […] After the drug solution dried, the wheat was inoculated by spreading with conidiospore of fungi of powdery mildew, and the wheat was kept in a thermostatic chamber at 20° C. From 6 to 8 days after the inoculation, the area of sporogony was examined.

rice blast = assay: whole plant or invertebrate; assay type: in vivo, Rice (cultivar: Nihonbare); conditions: Pyricularia oryzae, foliar, read-out: controlling effects as compared with non-treated cases (number of lesions)
cucumber powdery mildew [1] = assay: Test on preventive effect against cucumber powdery mildew; assay type: in vivo, Cucumber (cultivar: Suyo); conditions: Cucumis sativus, foliar spray before inoculation, examined 6 to 11 days after inoculation, read-out: controlling effects as compared with non-treated cases (area of sporogony)
Procedure: Test on Preventive Effect Against Cucumber Powdery Mildew Cucumber (cultivar: […] After the drug solution dried, the cucumber was sprayed and inoculated with a conidiospore suspension of fungi of powdery mildew, and the cucumber was kept in a thermostatic chamber at 20° C. From 6 to 11 days after the inoculation, the area of sporogony was examined.

cucumber powdery mildew [2] = assay: Test on rainfastness of effect against cucumber powdery mildew; assay type: in vivo, Cucumber (cultivar: Suyo); conditions: Cucumis sativus, topical, 500 gai/ha
Procedure: Cucumber (cultivar: […] A day after the treatment, 10 mm/hr of artificial rainfall was applied for 1 hour. Together with seedlings not subjected to rainfall treatment (preventive), the cucumber was sprayed and inoculated with a conidiospore suspension of fungi of powdery mildew, and the cucumber was kept in a thermostatic chamber at 20° C. From 6 to 11 days after the inoculation, the number of lesions was examined, and the controlling rate was calculated by comparison with the non-treated cases. The results are shown in Table 5.

[3] = 10 mm/hr artificial rainfall for 1 hour a day after treatment, read-out: Controlling rate of cucumber powdery mildew (%) Rainfall
[4] = no rainfall treatment (preventive), read-out: Controlling rate of cucumber powdery mildew (%) Preventive

## COc1cc(C)c(C(=O)c2c(OC)ncc(C)c2C)c(OC)c1OC [1-20, 3-(2,3,4-trimethoxy-6-methylbenzoyl)-2-methoxy-4,5-dimethylpyridine]
Wheat powdery mildew
  pest or weed control at 125 ppm: ≥ 90%
other
  melting point: 84 to 86 °C

## COc1cc(C)c(C(=O)c2c(Cl)ncc(C)c2Cl)c(OC)c1OC [1-16, 3-(2,3,4-trimethoxy-6-methylbenzoyl)-2,4-dichloro-5-methylpyridine]
Wheat powdery mildew
  pest or weed control at 125 ppm: ≥ 90%
Rice blast
  pest or weed control at 500 ppm: ≥ 90%
Cucumber powdery mildew [1]
  pest or weed control at 125 ppm: ≥ 90%
other
  melting point: 78 to 80 °C

## COc1cc(C)c(C(=O)c2c(OC)ncc(Cl)c2Br)c(OC)c1OC [Compound No. 1-1, 3-(2,3,4-trimethoxy-6-methylbenzoyl)-4-bromo-5-chloro-2-methoxypyridine]
Wheat powdery mildew
  pest or weed control at 125 ppm: ≥ 90%
Rice blast
  pest or weed control at 500 ppm: ≥ 90%
Cucumber powdery mildew [1]
  pest or weed control at 125 ppm: ≥ 90%
Cucumber powdery mildew [2]; [3]
  pest or weed control at 500 g/ha: 100%
Cucumber powdery mildew [2]; [4]
  pest or weed control at 500 g/ha: 100%
other
  melting point: 92 to 94 °C

## COc1cc(C)c(C(=O)c2c(OC)ncc(Cl)c2Cl)c(OC)c1OC [Compound No. 1-15, 3-(2,3,4-trimethoxy-6-methylbenzoyl)-4,5-dichloro-2-methoxypyridine]
Wheat powdery mildew
  pest or weed control at 125 ppm: ≥ 90%
Rice blast
  pest or weed control at 500 ppm: ≥ 90%
Cucumber powdery mildew [1]
  pest or weed control at 125 ppm: ≥ 90%
Cucumber powdery mildew [2]; [3]
  pest or weed control at 500 g/ha: 100%
Cucumber powdery mildew [2]; [4]
  pest or weed control at 500 g/ha: 100%
other
  melting point: 84 to 86 °C

## COc1cc(C)c(C(=O)c2c(OC)ncc(Cl)c2OC)c(OC)c1OC [1-11, 3-(2,3,4-trimethoxy-6-methylbenzoyl)-5-chloro-2,4-dimethoxypyridine]
Wheat powdery mildew
  pest or weed control at 125 ppm: ≥ 90%
Cucumber powdery mildew [1]
  pest or weed control at 125 ppm: ≥ 90%
other
  melting point: 93 to 94 °C

## COc1cc(C)c(C(=O)c2c(F)ncc(C)c2I)c(OC)c1OC [1-18, 3-(2,3,4-trimethoxy-6-methylbenzoyl)-2-fluoro-4-iodo-5-methylpyridine]
Wheat powdery mildew
  pest or weed control at 125 ppm: ≥ 90%
other
  melting point: 140 to 141 °C
